Test results: article PMC8236452, “Pharmacokinetics and safety of rucaparib in patients with advanced solid tumors and hepatic impairment” (Cancer Chemotherapy and Pharmacology, 2021)

Tests used:
[1] = cited from earlier work
[2] = set-up: method as in PMID 32129697; conditions: in vitro; cited from earlier work
[3] = Plasma pharmacokinetics after a single oral dose of rucaparib 600 mg in patients with advanced solid tumors, by hepatic function group; conditions: for AUC(0-inf) / AUC(0-t) / Cmax / Vd/F: human, plasma, 600 mg; for AUC(0-t): AUC0–last; for Vd/F: Vz/F
Protocol: In Part 1, patients received a single oral dose of rucaparib 600 mg on day 1; PK samples were collected and safety monitored through day 7.
Sample collection, processing, and shipping were conducted according to standardized protocols shared across study sites. Plasma samples were collected for PK analysis at the predose assessment and at 1, 2, 3, 4, 8, 12, 24, 48, 72, 96, 120, and 144 h postdose. A predose urine sample was collected less than 12 h prior to study drug administration. Total urine was collected 0–12 h and 12–24 h postdose. Total (bound and unbound) concentrations of rucaparib and its metabolite M324 in plasma and urine samples were determined by Q Squared Solutions BioSciences (Ithaca, NY, USA) using validated liquid chromatography mass spectrometry/mass spectrometry methods. Stable deuterium-labeled analytes were used as internal standards. The assay calibration ranges for plasma samples were 5–10,000 ng/mL for rucaparib and 1–1000 ng/mL for M324 with lower limits of quantification (LLOQ) of 5.00 and 1.00 ng/mL, respectively. For urine samples, the calibration range was 500–50,000 ng/mL for both rucaparib and M324, with a LLOQ of 500 ng/mL for both analytes. The precision was within 9.3% CV, and the accuracy was within ± 6.2%.
PK parameters were estimated from the concentration–time profiles. Actual elapsed time after dosing was used to estimate plasma PK parameters based on noncompartmental methods using Phoenix® WinNonlin® version 8.1.0 (Certara USA, Inc., Princeton, NJ, USA). […] Exploratory PK parameters for M324 calculated based on plasma and urine concentration-time data were Cmax, AUC0–last, AUC0–inf, t1/2, tmax, Ae0–24, and CLR, as data allowed.
PK parameters were calculated by noncompartmental analysis, analyzed using descriptive statistics, and presented by hepatic functional status. Analysis of variance (ANOVA) was used to compare PK parameters (e.g., Cmax, AUC0–last, and AUC0–inf) between the normal hepatic function group and the moderate hepatic impairment group per NCI-ODWG criteria. PK values were log-transformed before analysis. Baseline covariates (e.g., creatinine clearance [CLcr], sex, age, BMI, and ECOG PS) were tested for any significant effect (P value < 0.05). Geometric least-squares means were used to calculate the ratios of the PK parameters in the hepatic impairment group to those in the control group, along with 90% confidence intervals (CIs). The Wilcoxon rank-sum test was used to compare tmax values between the two groups, and estimates of the median differences were determined, along with 90% CIs. In addition, the relationships between log-transformed PK parameters (AUC0–last, AUC0–inf, Cmax) for rucaparib and M324 and hepatic function parameters (bilirubin and aspartate aminotransferase [AST]) relevant to the classification of hepatic impairment according to NCI-ODWG were explored by a linear regression approach.

[4] = ANOVA, NCI-ODWG moderate hepatic impairment vs normal hepatic function
[5] = Child–Pugh mild hepatic impairment, single oral rucaparib 600 mg
[6] = Child–Pugh moderate hepatic impairment, single oral rucaparib 600 mg
[7] = Child–Pugh severe hepatic impairment, single oral rucaparib 600 mg
[8] = NCI-ODWG moderate hepatic impairment, single oral rucaparib 600 mg
[9] = NCI-ODWG normal hepatic function, single oral rucaparib 600 mg
[10] = oral, Geometric LS means, ANOVA, NCI-ODWG moderate hepatic impairment (n = 8)
[11] = oral, Geometric LS means, ANOVA, NCI-ODWG normal hepatic function (n = 8)
[12] = po, GM, Child–Pugh mild hepatic impairment, single oral rucaparib 600 mg
[13] = po, GM, Child–Pugh moderate hepatic impairment, single oral rucaparib 600 mg
[14] = po, GM, Child–Pugh severe hepatic impairment, single oral rucaparib 600 mg
[15] = po, GM, NCI-ODWG moderate hepatic impairment, single oral rucaparib 600 mg
[16] = po, Mean (SD), Child–Pugh mild hepatic impairment, single oral rucaparib 600 mg
[17] = po, Mean (SD), Child–Pugh moderate hepatic impairment, single oral rucaparib 600 mg
[18] = po, Mean (SD), Child–Pugh severe hepatic impairment, single oral rucaparib 600 mg
[19] = po, Mean (SD), NCI-ODWG moderate hepatic impairment, single oral rucaparib 600 mg
[20] = po, Mean (SD), NCI-ODWG normal hepatic function, single oral rucaparib 600 mg
[21] = po, Median (min–max), Child–Pugh mild hepatic impairment, single oral rucaparib 600 mg
[22] = po, Median (min–max), Child–Pugh moderate hepatic impairment, single oral rucaparib 600 mg
[23] = po, Median (min–max), Child–Pugh severe hepatic impairment, single oral rucaparib 600 mg
[24] = po, Median (min–max), NCI-ODWG moderate hepatic impairment, single oral rucaparib 600 mg
[25] = po, Median (min–max), NCI-ODWG normal hepatic function, single oral rucaparib 600 mg

## CNCc1ccc(-c2[nH]c3cc(F)cc4c3c2CCNC4=O)cc1 [rucaparib]
[1]
  plasma protein binding: 70%
[2]
  metabolic turnover rate: low
[3]; [4]
  AUC0-inf, Geometric mean ratio Moderate/normal (90% CI): 1.446
  AUC0–last, Geometric mean ratio Moderate/normal (90% CI): 1.335 (0.617–2.891)
  Cmax, Geometric mean ratio Moderate/normal (90% CI): 0.907 (0.605–1.362)
[3]; ANOVA, NCI-ODWG moderate hepatic impairment vs normal hepatic function, listed as Rucaparib
  AUC0-inf, Geometric mean ratio Moderate/normal (90% CI): 1.446 (0.668–3.131)
[3]; [5]
  CL/F, GM: 64.0 L/h
  CL/F, Mean (SD): 82.2 (59.5) L/h
  CL/F, Median (min–max): 68.3 (26.4–180) L/h
[3]; [6]
  CL/F, GM: 23.7 L/h
  CL/F, Mean (SD): 25.1 (8.62) L/h
  CL/F, Median (min–max): 28.4 (14.6–34.6) L/h
[3]; [7]
  CL/F, GM: 22.2 L/h
  CL/F, Mean (SD): 39.6 (46.4) L/h
  CL/F, Median (min–max): 39.6 (6.79–72.4) L/h
[3]; [8]
  CL/F, GM: 30.2 L/h
  CL/F, Mean (SD): 48.1 (56.8) L/h
  CL/F, Median (min–max): 29.1 (6.79–180) L/h
[3]; [9]
  CL/F, GM: 43.7 L/h
  CL/F, Mean (SD): 55.7 (42.7) L/h
  CL/F, Median (min–max): 33.1 (15.9–133) L/h
[3]; oral, AUC0-inf, Geometric LS means, ANOVA, NCI-ODWG moderate hepatic impairment (n = 8)
  AUC(0-inf): 19900 ng·h/mL
[3]; oral, AUC0-inf, Geometric LS means, ANOVA, NCI-ODWG normal hepatic function (n = 8)
  AUC(0-inf): 13700 ng·h/mL
[3]; [10]
  AUC(0-t): 17500 ng·h/mL
  Cmax: 583 ng/mL
[3]; [11]
  AUC(0-t): 13100 ng·h/mL
  Cmax: 642 ng/mL
[3]; po, AUC0–inf, GM, Child–Pugh mild hepatic impairment, single oral rucaparib 600 mg
  AUC(0-inf): 9370 ng·h/mL
[3]; po, AUC0–inf, GM, Child–Pugh moderate hepatic impairment, single oral rucaparib 600 mg
  AUC(0-inf): 25300 ng·h/mL
[3]; po, AUC0–inf, GM, Child–Pugh severe hepatic impairment, single oral rucaparib 600 mg
  AUC(0-inf): 27100 ng·h/mL
[3]; po, AUC0–inf, GM, NCI-ODWG moderate hepatic impairment, single oral rucaparib 600 mg
  AUC(0-inf): 19900 ng·h/mL
[3]; po, AUC0–inf, GM, NCI-ODWG normal hepatic function, single oral rucaparib 600 mg
  AUC(0-inf): 13700 ng·h/mL
[3]; po, AUC0–inf, Mean (SD), Child–Pugh mild hepatic impairment, single oral rucaparib 600 mg
  AUC(0-inf): 11900 ng·h/mL
[3]; po, AUC0–inf, Mean (SD), Child–Pugh moderate hepatic impairment, single oral rucaparib 600 mg
  AUC(0-inf): 26800 ng·h/mL
[3]; po, AUC0–inf, Mean (SD), Child–Pugh severe hepatic impairment, single oral rucaparib 600 mg
  AUC(0-inf): 48300 ng·h/mL
[3]; po, AUC0–inf, Mean (SD), NCI-ODWG moderate hepatic impairment, single oral rucaparib 600 mg
  AUC(0-inf): 29000 ng·h/mL
[3]; po, AUC0–inf, Mean (SD), NCI-ODWG normal hepatic function, single oral rucaparib 600 mg
  AUC(0-inf): 17000 ng·h/mL
[3]; po, AUC0–inf, Median (min–max), Child–Pugh mild hepatic impairment, single oral rucaparib 600 mg
  AUC(0-inf): 8780 ng·h/mL
[3]; po, AUC0–inf, Median (min–max), Child–Pugh moderate hepatic impairment, single oral rucaparib 600 mg
  AUC(0-inf): 21100 ng·h/mL
[3]; po, AUC0–inf, Median (min–max), Child–Pugh severe hepatic impairment, single oral rucaparib 600 mg
  AUC(0-inf): 48300 ng·h/mL
[3]; po, AUC0–inf, Median (min–max), NCI-ODWG moderate hepatic impairment, single oral rucaparib 600 mg
  AUC(0-inf): 20600 ng·h/mL
[3]; po, AUC0–inf, Median (min–max), NCI-ODWG normal hepatic function, single oral rucaparib 600 mg
  AUC(0-inf): 18100 ng·h/mL
[3]; [12]
  AUC(0-t): 8910 ng·h/mL
  Cmax: 550 ng/mL
  Vd/F: 2320 L
[3]; [13]
  AUC(0-t): 22500 ng·h/mL
  Cmax: 657 ng/mL
  Vd/F: 1460 L
[3]; [14]
  AUC(0-t): 23900 ng·h/mL
  Cmax: 692 ng/mL
  Vd/F: 1530 L
[3]; [15]
  AUC(0-t): 17500 ng·h/mL
  Cmax: 583 ng/mL
[3]; po, GM, NCI-ODWG normal hepatic function, single oral rucaparib 600 mg
  AUC(0-t): 13100 ng·h/mL
[3]; [16]
  AUC(0-t): 11600 ng·h/mL
  Cmax: 604 ng/mL
[3]; [17]
  AUC(0-t): 24100 ng·h/mL
  Cmax: 694 ng/mL
[3]; [18]
  AUC(0-t): 42200 ng·h/mL
  Cmax: 827 ng/mL
[3]; [19]
  AUC(0-t): 25500 ng·h/mL
  Cmax: 658 ng/mL
[3]; [20]
  AUC(0-t): 16200 ng·h/mL
  Cmax: 685 ng/mL
[3]; [21]
  AUC(0-t): 8580 ng·h/mL
  Cmax: 590 ng/mL
[3]; [22]
  AUC(0-t): 18400 ng·h/mL
  Cmax: 762 ng/mL
[3]; [23]
  AUC(0-t): 42200 ng·h/mL
  Cmax: 827 ng/mL
[3]; [24]
  AUC(0-t): 17800 ng·h/mL
  Cmax: 471 ng/mL
[3]; [25]
  AUC(0-t): 17700 ng·h/mL
  Cmax: 665 ng/mL
